Measured values from US20080167375A1, “TREATMENT OF CUTANEOUS NEUROGENIC INFLAMMATION” (Astion Pharma A/S, priority 2006, published 2008).
Where two headings read alike, the source gives them in different places.

Columns and labels:
[1] = tested on: capsaicin-induced neurogenic inflammation (ear oedema); assay: Capsaicin-induced ear oedema (neurogenic inflammation) model in mice; assay type: in vivo, NMRI mice; settings: for % relative ear oedema (2. app): co-administered with capsaicin 250 μg/ear, 15 min after second capsaicin application; for % inhibition of ear oedema: after second capsaicin application, vs vehicle
Description: Effect on capsaicin-induced neurogenic inflammation in mice and binding to the TRP vanillioid receptor.
The mechanism of cutaneous neurogenic inflammation is connected with the release of neuropeptides from sensory nerve endings. The neuropeptide substance P is believed to play a major role in inducing an inflammatory response by affecting different inflammatory cells.

[2] = tested on: TNF-α release in LPS-activated human peripheral blood mononuclear cells (PBMC); assay: LPS-induced TNF-α release from human PBMC; assay type: cell-based; settings: for TNF-α: LPS-stimulated PBMC
Description: (§1) The ability of GMCY to inhibit release of pro-inflammatory cytokines (TNF-α and IL-1) in LPS-activated human peripheral blood mononuclear cells (PBMC) has been investigated.

[3] = biological target: T1, Fatty acid amid hydrolase (FAAH) (Rattus norvegicus, UniProt P97612); settings: reference compound of the assay; cited from earlier work
T1 construct: source is rat brain; tissue MDS Pharma Services; host or cells: rat brain
T1 sequence (P97612 1-579): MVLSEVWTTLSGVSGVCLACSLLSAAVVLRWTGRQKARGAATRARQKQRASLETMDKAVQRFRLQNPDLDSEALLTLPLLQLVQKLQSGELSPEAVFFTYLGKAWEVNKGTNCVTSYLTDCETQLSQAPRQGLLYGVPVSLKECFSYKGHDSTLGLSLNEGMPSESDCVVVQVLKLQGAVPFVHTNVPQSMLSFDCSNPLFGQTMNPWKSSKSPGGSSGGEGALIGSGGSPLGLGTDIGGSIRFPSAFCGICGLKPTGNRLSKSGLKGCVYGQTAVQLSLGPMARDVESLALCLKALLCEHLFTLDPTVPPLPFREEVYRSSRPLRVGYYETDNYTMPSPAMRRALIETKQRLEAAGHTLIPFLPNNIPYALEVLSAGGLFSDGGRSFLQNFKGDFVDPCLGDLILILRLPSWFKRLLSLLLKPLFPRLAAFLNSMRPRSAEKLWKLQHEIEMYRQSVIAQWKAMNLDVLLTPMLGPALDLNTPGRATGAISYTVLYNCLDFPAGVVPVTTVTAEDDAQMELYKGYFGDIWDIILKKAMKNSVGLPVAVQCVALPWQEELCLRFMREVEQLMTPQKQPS

human PPARα = biological target: T2, human PPARα (Homo sapiens, UniProt Q07869); assay: PPARα agonism, Gal4-luciferase transactivation assay in HEK 293-T; assay type: cell-based
T2 construct: host or cells: HEK 293-T
T2 sequence (Q07869 239-466 limits assumed): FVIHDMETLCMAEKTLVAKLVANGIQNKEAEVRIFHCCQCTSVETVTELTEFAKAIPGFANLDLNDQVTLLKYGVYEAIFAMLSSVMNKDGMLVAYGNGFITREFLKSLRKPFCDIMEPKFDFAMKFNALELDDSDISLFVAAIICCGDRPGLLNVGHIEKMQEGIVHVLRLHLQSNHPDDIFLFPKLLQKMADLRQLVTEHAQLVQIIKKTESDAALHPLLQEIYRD
Description: Effect of GMCY and glyceryl fatty acid esters of higher acid chain length on PPARα agonism.
Agonism of PPARα can be tested by commercially available assays such as by Indigo Biosciences). The test substance is dissolved in DMSO and serial dilutions in DMSO were prepared. A plasmid was formed by fusing a ligand-binding domain of human PPARα, to a DAN-binding domain of the yest transcription factor Gal4 under the control of the SV40 promoter. This plasmid also encoded the UAS-firefly luciferase reporter under the control of the Gal4 DNA response element. Cell-cultures and transactivation assays were HEK 293-T fibroblast (ATCC Manassas, Va.) which were cultured in high-glucose Dulbecco's Minimal Essential Medium (DMEM) supplemented with 10% fetal bovine serum (FBS, Sigma), 0.2 mg/ml streptomycin and 200 U/ml penicillin (Gibco Grand Island, N.Y.). Cells were transfected with plasmid DNA using Lipofectamine reagent (In Vitrogen, Carlsbad, Calif.) using the manufacturers recommended procedures. Sixteen hours after treatment, the cells were lysed with passive lysis buffer (Promega, Madison, Wis.) and a Tecan GeniousPro (Research Triangle Park, N.C.). The fold induction of normalised luciferase activity was calculated relative to DMSO, DMSO-treated cells.

[4] = biological target: T3, Protein tyrosine kinase enzyme Syk (Homo sapiens, UniProt P43405); assay: Protein tyrosine kinase Syk inhibition (MDS Pharma, assay no 174200); assay type: biochemical
T3 construct: MDS Pharma assay no 174200

vanilloid receptors = biological target: T4, vanilloid receptors (Rattus norvegicus, UniProt O35433); assay: In vitro radioligand binding assay for vanilloid receptors (MDS Pharma Services); settings: rat vas deferens, field stimulated
T4 construct: The tissue used in this assay was rat vas deferens, field stimulated; tissue MDS Pharma Services; host or cells: rat vas deferens
Description: Literature reference to this assay is Wardle, K A et al. J PharmPharmacol. 48:285, 1996.

acute inflammation = settings: Example 111 of WO 2004/000333; cited from earlier work
[5] = tested on: IL-6 release in LPS-activated human peripheral blood mononuclear cells (PBMC); assay: LPS-induced IL-6 release from human PBMC; assay type: cell-based; settings: physiologically relevant concentrations
skin = assay: Skin tolerability of dermatological compositions; settings: higher doses
Description: Therefore, in current interesting embodiments of the invention, the dermatological composition comprises for reasons of safety and convenience a maximal dose of GMCY or an analogue thereof in an amount of 5% of GMCY or an analogue thereof by weight of the dermatological composition, such as in a maximum doses of 4.5%, 4%, 3.5%, 3%, 2.5%, 2%, 1.5%, 1.25 1%, 0.8, 0.6 and 0.5% of GMCY or an analogue thereof by weight of the dermatological composition.

[6] = tested on: IL-1β release in LPS-activated human peripheral blood mononuclear cells (PBMC); assay: LPS-induced IL-1β release from human PBMC; assay type: cell-based; design: IL-1β: unit not given here; settings: for IL-1β: LPS-stimulated PBMC
Description: as §1

[7] = biological target: T1, Fatty acid amid hydrolase (FAAH); assay: FAAH in vitro enzyme assay (MDS Pharma Services); assay type: biochemical; settings: rat brain source; substrate Anandamide+[3H]Anandamide
Description: The assay is conducted using the following test conditions; source is rat brain, substrate is Anandamide+[3H]Anandamide, the reation is[3H]Anandamide→[3H]Ethanolamine+Arachidonic acid and the quantitation is performed on [3H]Ethanolamine using a test concentration usually of about 10 μM.

[8] = physiologically relevant concentrations

T4 sequence (O35433 whole entry): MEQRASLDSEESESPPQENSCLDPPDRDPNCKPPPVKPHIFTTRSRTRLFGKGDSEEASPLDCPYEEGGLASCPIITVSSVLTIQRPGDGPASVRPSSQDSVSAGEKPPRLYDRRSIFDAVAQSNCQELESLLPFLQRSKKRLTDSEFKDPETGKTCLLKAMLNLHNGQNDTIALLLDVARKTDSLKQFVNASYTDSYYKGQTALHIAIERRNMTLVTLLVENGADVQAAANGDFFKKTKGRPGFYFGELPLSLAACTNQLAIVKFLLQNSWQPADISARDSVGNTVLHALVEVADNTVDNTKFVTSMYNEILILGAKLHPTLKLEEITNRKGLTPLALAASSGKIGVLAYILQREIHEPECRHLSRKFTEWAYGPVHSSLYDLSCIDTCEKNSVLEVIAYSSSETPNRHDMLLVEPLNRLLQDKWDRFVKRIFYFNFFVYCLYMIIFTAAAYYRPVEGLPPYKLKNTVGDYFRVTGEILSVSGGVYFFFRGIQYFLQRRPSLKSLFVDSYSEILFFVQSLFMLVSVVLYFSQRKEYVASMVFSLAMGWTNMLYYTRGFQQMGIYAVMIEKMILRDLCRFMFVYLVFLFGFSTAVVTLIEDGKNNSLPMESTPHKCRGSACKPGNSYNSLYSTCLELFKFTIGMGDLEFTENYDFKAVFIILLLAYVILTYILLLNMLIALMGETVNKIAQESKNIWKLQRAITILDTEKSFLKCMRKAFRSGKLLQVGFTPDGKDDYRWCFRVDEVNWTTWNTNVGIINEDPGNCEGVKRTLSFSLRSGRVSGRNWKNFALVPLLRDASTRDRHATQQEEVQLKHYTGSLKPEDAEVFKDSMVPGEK

For `CCCCCCCCCC(=O)OCC(O)CO` (centres unmarked) [1-glyceryl monocaprate, reference compound], the “inhibitory effect on neurogenic inflammation (ear oedema vs vehicle control)” value ([1]; all treated groups (2000, 450, 100 μg/ear)) was “no inhibitory effect”.
`C[C@@H]1C[C@H]2[C@@H]3CCC4=CC(=O)C=C[C@]4(C)[C@@]3(F)[C@@H](O)C[C@]2(C)[C@@]1(O)C(=O)CO` [Dexamethasone, reference compound] gave a TNF-α ([2]; Dexamethasone control, concentration not given) of 87.
In the case of `CCCCCCCC/C=C\CCCCCCCC(=O)C(F)(F)F` [Oleyl Trifluromethyl Ketone], the IC50 [3] is given as 0.029 µM.
For `CCCCCCCC(=O)OCC(O)CO` (racemic) [GMCY, 1-glyceryl monocaprylate], the PPARα agonism (human PPARα) was “did not act as an agonist”, the IC50 [4] was 61 µM and the “binding to the vanilloid receptors” value (vanilloid receptors) was “does not bind”. It also gave a TNF-α ([2]; 1 μM) of 230.2, a TNF-α ([2]; 10 μM) of 105 and a TNF-α ([2]; 100 μM) of 73.7. For the same compound, the TNF-α ([2]; 1000 μM) was 38.5, the TNF-α [2] was 6.9 and the “inhibition of LPS induced release of TNF-α” value [2, 8] was “dose dependently inhibit”. The “effect on acute inflammation” value (acute inflammation) was “any effect could not be proven statistically”, the “inhibition of LPS induced release of IL-6” value [5] was “dose dependently inhibit” and the “skin burning / irritation” value (skin) was “causes burning or weak irritation in higher doses”. For the same compound, the IL-1β ([6]; 1 μM) was 459.2, the IL-1β ([6]; 10 μM) was 320.9 and the IL-1β ([6]; 100 μM) was 238.6. For the same compound, the IL-1β ([6]; 1000 μM) was 124.5, the IL-1β ([6]; 10000 μM) was 8.2 and the “inhibition of LPS induced release of IL-1β” value [6, 8] was “dose dependently inhibit”. For the same compound, the “% relative ear oedema (2. app)” value ([1]; 100 μg/ear topical) was 15.8%, the “% inhibition of ear oedema” value ([1]; 100 μg/ear) was 32.6% and the “% relative ear oedema (2. app)” value ([1]; 450 μg/ear topical) was 15.3%. For the same compound, the “% inhibition of ear oedema” value ([1]; 450 μg/ear) was 34.4%, the “% relative ear oedema (2. app)” value ([1]; 2000 μg/ear topical) was 15.0% and the “% inhibition of ear oedema” value ([1]; 2000 μg/ear) was 36.0%. The “reduction of inflammation in comparison to the vehicle control” value ([1]; after repeated application of capsaicin, treated groups overall) was “about 35%” and the IC50 [7] was 53 µM.
